According to paper PMC11947619, “Molecular mechanism of Mad2 conformational conversion promoted by the Mad2‐interaction motif of Cdc20” (Protein Science : A Publication of the Protein Society, 2025):
Residues, ends and D or L forms follow the SMILES beside them.

What was measured:
O‐Mad2^∆C10 = target: T1, O‐Mad2^∆C10 (Homo sapiens, UniProt Q13257); assay: NMR titration / HSQC: Cdc20^MIM with O-Mad2^∆C10 (trapped open state); assay type: binding; conditions: 25°C; for binding to Mad2^∆C10: NMR titration / HSQC, two-fold molar excess of peptide, spectra within 15 minutes (Figure S6)
T1 construct: His6-DoubleStrep-TEV (N); made in house
Text: The cloning of human wild‐type Mad2 and the mutant Mad2^R133A by the USER® method (NEB) into the pRSFDuet‐1 vector (71341‐3, Sigma‐Aldrich) with a His6‐DoubleStrep‐TEV tag at its N‐terminus was described previously (Fischer et al., [2022]). For this study, Mad2 mutants were generated as follows. The Mad2^LL expression construct was generated from the wild‐type Mad2 expression vector (Fischer et al., [2022]) by replacing residues 109–117 (TAKDDSAPR) with GSG. Mad2^ΔC10 and Mad2^Δβ7/β8 were modified from wild‐type Mad2 expression construct by deleting residues 196–205 and 166–205, respectively. Mad2^LL/R133A was modified by substituting Ala for Arg133 from the Mad2^LL expression construct. Mad2^LL/ΔC10 was modified from Mad2^LL by deleting residues 196–205. Mad2^L13A/R133A was generated from the Mad2^R133A mutant. Site‐directed mutagenesis of Mad2 was completed using the QuikChangeTM Lightning Site‐Directed Mutagenesis Kit (Agilent) developed by Stratagene Inc. (La Jolla, CA).
All NMR data on Mad2 were acquired in a 5 mm tube at 25°C in 20 mM HEPES, pH 7.0, 100 mM NaCl, 1 mM TCEP, 5% D2O. Backbone assignment experiments and all spectra, unless otherwise denoted, were collected using an in‐house Bruker 800 MHz Avance III spectrometer, equipped with a triple resonance TCI CryoProbe. 2D spectra were acquired using BEST ^1H,^15N‐TROSY HSQC, with 16 scans and a recycle delay of 400 ms, giving an experimental time of 12 min per spectrum. A Bruker 950 MHz Avance III spectrometer (MRC Biomedical NMR Centre, Francis Crick Institute) was used for the residue conversion rate analysis and the characterization of Mad2 dimers. Most experiments, including all backbone experiments, were acquired with 100 μM samples; the residue‐specific conversion rate analysis and characterization of Mad2 dimers utilized 200 μM samples and 300 μM samples, respectively.
Mad2LL (grey), Mad2∆C10 (green) and Mad2LL/∆C10 (purple). […] 15N{1H}‐ heteronuclear NOE were measured at 298 K. Regions that are highly dynamic are highlighted in yellow. e. […]

O‐Mad2^WT = target: T2, O‐Mad2^WT (Homo sapiens, UniProt Q13257); assay: NMR: conversion of monomeric wild-type O-Mad2^WT; assay type: biochemical; conditions: O-Mad2^WT 300 μM, two-fold molar excess peptide, HSQC, 25°C
T2 construct: MD simulations on the full‐length O‐Mad2:C‐Mad2:Mad1^MIM complex; His6-DoubleStrep-TEV (N); made in house
Experimental: FIGURE 6 O‐Mad2 retains its dynamic and structural properties in the O‐Mad2:C‐Mad2 dimer. (a, c) HSQC spectra of 300 μM wild‐type O‐Mad2^WT (a, light blue) and O‐Mad2^WT:(C‐Mad2^WT:Mad1^MIM) (c, blue). The schematics show the conformation of Mad2 as indicated by the tryptophan side‐chain resonances and their oligomeric states as determined by SEC‐MALS (insets). The SEC peaks are labeled with their molecular masses (kDa), where the theoretical molecular masses for monomeric and dimeric Mad2 are 23.5 and 47.0 kDa, respectively. For the dimeric samples, only one of the monomers was isotopically labeled and observable by NMR. Distinct chemical shift differences were also observed for Gly50 in O‐Mad2 and C‐Mad2, and its resonances are marked in the spectra. Cdc20^MIM‐123‐152 was added at two‐fold molar excess to O‐Mad2^WT (a), and O‐Mad2^WT:(C‐Mad2^WT:Mad1^MIM) (c). (b, d) This generated C‐Mad2^WT‐Cdc20^MIM (b, brown), and (C‐Mad2^WT:Cdc20^MIM):(C‐Mad2^WT:Mad1^MIM) (d, yellow), respectively. Their spectra are overlaid with that of C‐Mad2^L13A/R133A:Cdc20^MIM (red) for comparison. (e) Cα RMSF were determined from MD simulations at 300 K for monomeric O‐Mad2 (blue line) and O‐Mad2 in a O‐Mad2:C‐Mad2:Mad1^MIM dimer (brown dotted line). […]
For wild‐type Mad2, the protein was expressed as O‐Mad2^WT using the conditions described above. […]

T1 sequence (Q13257 1-195): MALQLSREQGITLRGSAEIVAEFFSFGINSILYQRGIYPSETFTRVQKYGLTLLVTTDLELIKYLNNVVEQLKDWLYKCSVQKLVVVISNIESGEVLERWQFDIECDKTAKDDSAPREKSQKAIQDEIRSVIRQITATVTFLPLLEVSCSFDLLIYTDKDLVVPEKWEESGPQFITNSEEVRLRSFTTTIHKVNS
T2 sequence (Q13257 whole entry): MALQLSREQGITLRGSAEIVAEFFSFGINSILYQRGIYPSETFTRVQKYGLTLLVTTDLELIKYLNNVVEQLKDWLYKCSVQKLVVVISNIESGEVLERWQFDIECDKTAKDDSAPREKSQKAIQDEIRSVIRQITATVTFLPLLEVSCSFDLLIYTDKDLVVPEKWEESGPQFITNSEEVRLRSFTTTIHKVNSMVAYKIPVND

Row | binding to Mad2^∆C10 (O‐Mad2^∆C10) | O- to C-Mad2 conversion, in words (O‐Mad2^∆C10; O-Mad2^∆C10 100 μM, two-fold molar excess peptide, 24 h time course) | Molecule | conversion of O-Mad2^WT, in words (O‐Mad2^WT)
1 | No binding |  | CC[C@H](C)[C@H](NC(=O)[C@H](CCCCN)NC(=O)[C@H](C)NC(=O)[C@H](CCC(=O)O)NC(=O)[C@H](CCC(=O)O)NC(=O)[C@@H](NC(=O)[C@H](CC(=O)O)NC(=O)[C@@H](N)Cc1ccccc1)C(C)C)C(=O)N[C@@H](CC(C)C)C(=O)N[C@@H](CCCNC(=N)N)C(=O)N[C@@H](CC(C)C)C(=O)N[C@@H](CO)C(=O)NCC(=O)N[C@@H](CCCCN)C(=O)N1CCC[C@H]1C(=O)N[C@@H](CCC(N)=O)C(=O)N[C@@H](CC(N)=O)C(=O)N[C@@H](C)C(=O)N1CCC[C@H]1C(=O)N[C@@H](CCC(=O)O)C(=O)NCC(=O)N[C@@H](Cc1ccc(O)cc1)C(=O)N[C@@H](CCC(N)=O)C(=O)N[C@@H](CC(N)=O)C(=O)N[C@@H](CCCNC(=N)N)C(=O)N[C@@H](CC(C)C)C(=O)N[C@@H](CCCCN)C(=O)N[C@H](C(=O)N[C@@H](CC(C)C)C(=O)N[C@@H](Cc1ccc(O)cc1)C(=O)O)C(C)C [Cdc20^MIM‐123‐152] (H-FDVEEAKILRLSGKPQNAPEGYQNRLKVLY-OH; N-terminus and C-terminus assumed) | converted to C‐Mad2 upon binding Cdc20^MIM
2 | No binding | eliminated | EHQKAWALNLNGFDVEEAKILRLSGKPQ [Cdc20^MIM‐111‐138, Cdc20^MIM peptide spanning Cdc20 residues 111–138] | 
